Holding throughout (assay type): cell-based
One assay has as its system MDAMB231 cells. Put plainly: crystal violet (CV) proliferation assay, MDAMB231. The following applies: Homo sapiens, MDA-MB-231, MDAMB231 (PKCβ1^high, Rb^positive) 2000 cells. On the procedure:
(§1) Cell proliferation rates were determined using crystal violet assays. One thousand cells per well were plated in 96 well tissue culture plates and treated the following day with a bifunctional compound or control for 7 days in replicates of 8. Cells were fixed with 25% glutaraldehyde for 10 minutes with shaking, washed 5 times with distilled water, stained with a 1% crystal violet solution (solubilized in 25% methanol) for 10 minutes, washed again 5 times and allowed to dry. De-staining was performed using […] sodium citrate in 50% ethanol followed by quantification using a 96 well spectrophotometer set at an absorbance of 550 nm.

The test system of assay [1] is PKCβ1, E2F1, and Cyclin D1. Put plainly: western blot in BT549 and MDAMB436 cells (Example 6). Conditions: 1 µM, 24, 48, and 72 hours. On the procedure: TNBC BT549 and MDAMB436 cells were cultured in phenol-red free DMEM/F12 medium supplemented with 10% fetal bovine serum (FBS) and 1% AA. On day 1, cells were plated at a density of 2 x 10^5 BT549 cells or 4 x 10^5 MDAMB436 cells in a 6-well plate (two wells per treatment). The next day, cells were treated with DMSO, 1 µM Pr-9 (positive control), 1 µM Pr-9-1, 1 µM Pr-9-4, or 1 µM ENDX (negative control). Radioimmunoprecipitation Assay (RIPA) protein lysates were collected 24, 48, and 72 hours after treatment.
For western blot analysis, 25 µg of protein lysates were run on Criterion precast 10% Bis-Tris gel, transferred to PVDF membrane, incubated in TBST-5% milk for one hour, and then incubated overnight with PKCβ1 (SC8049, mouse, 1:200), E2F1 (SC251, mouse, 1:250), Cyclin D1 (CS2978, rabbit, 1:1000), or Actin (Sigma A2228, mouse, 1:10,000 or CS8457, rabbit, 1:2000) primary antibodies in TBST-5% BSA solution. Membranes were washed in TBS-T, incubated for one-hour in HRP-linked anti-rabbit or anti-mouse secondary antibodies in TBST-5% milk, and washed in TBS-T. Bands were developed using west-pico or west-femto chemiluminescent substrate reagents.

In assay [2] the test system is Rb-proficient MDAMB231 and Rb-deficient BT549 and MDAMB436 cells. Put plainly: crystal violet (CV) proliferation assay, TNBC cells (text statements covering several lines). Conditions: MDAMB231 and BT549 cells (FIG. 4A and TABLE 1). As for the experimental part: as §1

One may read the IC50 as the point on the concentration scale where inhibition reaches its midpoint. A higher IC50 goes with lower potency. In the assay on MDAMB231 cells, `CCC(=C(c1ccc(O)cc1)c1ccc(OCCN(C)C(=O)COCCOCCNC(=O)Cc2ccc3c(c2)CN(C2CCC(=O)NC2=O)C3=O)cc1)c1ccccc1` (stereo not shown) [TC-Pr-009, 2-[2-(2-2-[2-(2,6-dioxopiperidin-3-yl)-1-oxo-2,3-dihydro-1H-isoindol-5-yl]acetamidoethoxy)ethoxy]-N-(2-4-[1-(4-hydroxyphenyl)-2-phenylbut-1-en-1-yl]phenoxyethyl)-N-methylacetamide] came in with a half-inhibitory concentration (IC50) of 0.131 µM. In addition, the PKCβ1 protein levels entry in assay [1] was “altered to varying extent”. Moreover, the “protein levels of E2F1 and Cyclin D1” value in assay [1] (listed as Pr-9) is recorded as “clearly reduced”. The apoptosis result in assay [2] is “induced apoptosis”.

The values are drawn from EP4817688A2, “DEGRADING PKCß1 TO TREAT CANCER” (Mayo Foundation for Medical Education and Research, priority 2020, dated 2022).
